In patent US20240218022A1, “ANTI-VISTA MACROCYCLIC PEPTIDES AND COMPOSITIONS” (BRISTOL-MYERS SQUIBB COMPANY, priority 2022, published 2024):
Where two headings read alike, the source gives them in different places. Each block holds one molecule with its values, some of them ahead of it. Starred links: 1 amine or outer side, 2 acyl side, 3 side chain; linkers in the order of their positions; H or OH if unused. Positions of bridges follow the written chain, without caps; N, C: chain ends. Non-standard residues stand in square brackets, D forms with d. Residues, ends and D or L forms follow the SMILES beside them. N(3-phenylpropyl)Gly = O=C(O)CNCCCc1ccccc1; Phe(3-Me) = Cc1cccc(C[C@H](N)C(=O)O)c1; γGlu = O=C(O)[C@H](CCC(=O)[*:2])N[*:1]; 2Nal = N[C@@H](Cc1ccc2ccccc2c1)C(=O)O; βAsp = O=C(O)[C@H](CC(=O)[*:2])N[*:1]; Ahp(2) = CCCCC[C@H](N)C(=O)O; NMeNle = CCCC[C@H](NC)C(=O)O; Tle = CC(C)(C)[C@H](N)C(=O)O; NHexGly = CCCCCCNCC(=O)O; Nle = CCCC[C@H](N)C(=O)O; Orn = NCCC[C@H](N)C(=O)O; Aun = NCCCCCCCCCCC(=O)O; Dab = NCC[C@H](N)C(=O)O; AEEA = NCCOCCOCC(=O)O

Molecular target: T1, mouse VISTA (mVISTA) (Mus musculus, UniProt Q9D659)
T1 construct: expressed in transfected cells; host or cells: Human embryonic kidney 293T cells
T1 sequence (Q9D659 33-308): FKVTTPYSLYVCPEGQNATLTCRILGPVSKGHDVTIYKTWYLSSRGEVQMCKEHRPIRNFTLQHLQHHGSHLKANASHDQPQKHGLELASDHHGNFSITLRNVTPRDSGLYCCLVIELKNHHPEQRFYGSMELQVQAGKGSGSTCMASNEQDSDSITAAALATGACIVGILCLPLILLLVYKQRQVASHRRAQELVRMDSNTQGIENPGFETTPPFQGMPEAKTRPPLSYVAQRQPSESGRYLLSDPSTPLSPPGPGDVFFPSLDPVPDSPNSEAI
Assay: Cell-Based Binding High-Content Assay For mVISTA (HC CBA mVISTA)
Procedure, shortened: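 Competition of compound with a biotinylated peptide (final 2 nM, 30 min at RT) for binding to mVISTA on 293T cells, run under no-wash or wash (1 h compound preincubation then removal) formats. Readout by Alexa 647–streptavidin imaging on a high-content platform; four-parameter logistic fit gave IC50.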

[1] = 293T cells expressing mouse VISTA, competition with biotinylated peptide (2 nM), read-out: HC CBA mVISTA IC50

Structure (SMILES): CCCCCCN1CC(=O)N[C@@H](Cc2ccc(O)cc2)C(=O)N[C@@H](CC(C)C)C(=O)NCC(=O)N[C@@H](CCCNC(=N)N)C(=O)N[C@@H](CC(C)C)C(=O)N[C@@H](CCCCC)C(=O)N2CCC[C@H]2C(=O)N[C@@H](C(C)C)C(=O)N[C@@H](CC(=O)O)C(=O)N[C@H](C(=O)NCC(=O)O)CSCC(=O)N[C@@H](Cc2ccccc2)C(=O)N[C@@H](Cc2ccc(O)cc2)C(=O)N[C@@H](CC(=O)O)C1=O [Example 1016] ({CH2CO}-FYD[NHexGly]YLGRL[Ahp(2)]PVDCG-OH; thioether N-14)
- IC50 [1]: 21 nM

Structure (SMILES): CCCCC[C@@H]1NC(=O)[C@H](CCCC)N(C)C(=O)[C@H](CCCNC(=N)N)NC(=O)[C@H](CC(N)=O)NC(=O)[C@H](CC(C)C)NC(=O)[C@H](Cc2ccc(O)cc2)NC(=O)CN(CCCc2ccccc2)C(=O)[C@H](CC(=O)O)NC(=O)[C@H](Cc2ccc(O)cc2)NC(=O)[C@H](Cc2ccccc2)NC(=O)CSC[C@@H](C(=O)NCC(N)=O)NC(=O)[C@H](CO)NC(=O)[C@H](C(C)C)NC(=O)[C@@H]2CCCN2C1=O [Example 1086] ({CH2CO}-FYD[N(3-phenylpropyl)Gly]YLNR[NMeNle][Ahp(2)]PVSCG-NH2; thioether N-14)
- IC50 [1]: 40.7 nM

Structure (SMILES): CCCCCCN1CC(=O)N[C@@H](Cc2ccc(O)cc2)C(=O)N[C@@H](C(C)C)C(=O)NCC(=O)N[C@@H](CCCNC(=N)N)C(=O)N[C@@H](CC(C)C)C(=O)N[C@@H](CCCCC)C(=O)N2CCC[C@H]2C(=O)N[C@@H](C(C)C)C(=O)N[C@@H](CC(=O)O)C(=O)N[C@H](C(=O)N[C@@H](CO)C(=O)N[C@@H](CCN)C(=O)N[C@@H](CCC(N)=O)C(=O)O)CSCC(=O)N[C@@H](Cc2ccc3ccccc3c2)C(=O)N[C@@H](Cc2ccc(O)cc2)C(=O)N[C@@H](CC(=O)O)C1=O [Example 1166] ({CH2CO}-[2Nal]YD[NHexGly]YVGRL[Ahp(2)]PVDCS[Dab]Q-OH; thioether N-14)
- IC50 [1]: 18.8 nM

The next lines start with the values.

- IC50 (cell-based binding high-content assay, read-out: HC CBA mVISTA IC50): 33.9 nM
Structure (SMILES): CCCCCCN1CC(=O)N[C@@H](Cc2ccc(O)cc2)C(=O)N[C@@H](CC(C)C)C(=O)N[C@@H](CC(N)=O)C(=O)N[C@@H](CCCNC(=N)N)C(=O)N(C)[C@@H](CCCC)C(=O)N[C@@H](CCCCC)C(=O)N2CCC[C@H]2C(=O)N[C@@H](C(C)(C)C)C(=O)N[C@@H](CO)C(=O)N[C@H](C(=O)N[C@@H](CCC(=O)N[C@@H](CCN)C(=O)NCCCCCCCCCCC(=O)O)C(=O)O)CSCC(=O)N[C@@H](Cc2ccccc2)C(=O)N[C@@H](Cc2ccc(O)cc2)C(=O)N[C@@H](CC(=O)O)C1=O [Example 2323] ({CH2CO}-FYD[NHexGly]YLNR[NMeNle][Ahp(2)]P[Tle]SC[γGlu][Dab][Aun]-OH; thioether N-14)

- IC50 (the 19th table, scaffold drawing 22, read-out: HC CBA mVISTA IC50): 2.5 nM
Structure (SMILES): CCCCCCN1CC(=O)N[C@@H](Cc2ccc(O)cc2)C(=O)N[C@@H](CCCC)C(=O)NCC(=O)N[C@@H](CCCNC(=N)N)C(=O)N[C@@H](CC(C)C)C(=O)N[C@@H](CCCCC)C(=O)N2CCC[C@H]2C(=O)N[C@@H](C(C)C)C(=O)N[C@@H](CC(=O)O)C(=O)N[C@H](C(=O)NCC(=O)O)CSCC(=O)N[C@@H](Cc2cccc(C)c2)C(=O)N[C@@H](Cc2ccc(O)cc2)C(=O)N[C@@H](CC(=O)O)C1=O [compound 1431] ({CH2CO}-[Phe(3-Me)]YD[NHexGly]Y[Nle]GRL[Ahp(2)]PVDCG-OH; thioether N-14)

- IC50 (cell-based binding high-content assay, mVISTA, read-out: HC CBA miPr ISTA IC50): 19.8 nM
Structure (SMILES): CCCCCCN1CC(=O)N[C@@H](Cc2ccc(O)cc2)C(=O)N[C@@H](CC(C)C)C(=O)N[C@@H](CC(N)=O)C(=O)N[C@@H](CCCNC(=N)N)C(=O)N[C@@H](CC(C)C)C(=O)N[C@@H](CCCCC)C(=O)N2CCC[C@H]2C(=O)N[C@@H](C(C)C)C(=O)N[C@@H](CO)C(=O)N[C@H](C(=O)NCC(=O)NCCOCCOCC(=O)N[C@@H](CC(=O)O)C(=O)NCCOCCOCC(=O)NCCCCCCCCCCC(=O)O)CSCC(=O)N[C@@H](Cc2ccccc2)C(=O)N[C@@H](Cc2ccc(O)cc2)C(=O)N[C@@H](CC(=O)O)C1=O [compound 2001] ({CH2CO}-FYD[NHexGly]YLNRL[Ahp(2)]PVSCG[AEEA]D[AEEA][Aun]-OH; thioether N-14)

- IC50 (cell-based binding high-content assay, mVISTA, read-out: HC CBA miPrISTA IC50): 22.2 nM
Structure (SMILES): CCCCCCN1CC(=O)N[C@@H](Cc2ccc(O)cc2)C(=O)N[C@@H](C)C(=O)N[C@@H](CC(N)=O)C(=O)N[C@@H](CCCN)C(=O)N(C)[C@@H](CCCC)C(=O)N[C@@H](CCCCC)C(=O)N2CCC[C@H]2C(=O)N[C@@H](C(C)(C)C)C(=O)N[C@@H](CC(=O)O)C(=O)N[C@H](C(=O)N[C@@H](CC(=O)NCCOCCOCC(=O)N[C@@H](CC(=O)O)C(=O)NCCOCCOCC(=O)NCCCCCCCCCCC(=O)O)C(=O)O)CSCC(=O)N[C@@H](Cc2ccccc2)C(=O)N[C@@H](Cc2c[nH]c3ccccc23)C(=O)N[C@@H](CC(=O)O)C1=O [compound 2097] ({CH2CO}-FWD[NHexGly]YAN[Orn][NMeNle][Ahp(2)]P[Tle]DC[βAsp][AEEA]D[AEEA][Aun]-OH; thioether N-14)
